From patent US20080280952A1 (priority 2004, published 2008) come the findings set out here.

Broadly, the EC50 is the midpoint of the concentration-response curve. One may read the Emax as the greatest response seen or fitted, relative to the assay's reference.

In the test the target is T1, human cannabinoid CB2 receptor (Homo sapiens, UniProt P34972).
T1 construct: expressed in transfected cells; host or cells: Saccharomyces cerevisiae strain MMY23 (cassette integrated at the ura3 locus, GPD promoter)
Nature of the test: Cannabinoid CB2 receptor agonist activity, yeast reporter assay. The following applies: for Emax: read-out: efficacy (Emax) at the cloned human cannabinoid CB2 receptor. The test is classed as cell-based. As to the method:
The cannabinoid CB2 receptor agonist activity of the compounds of formula (I) was determined in accordance with the following experimental method.
Yeast (Saccharomyces cerevisiae) cells expressing the human cannabinoid CB2 receptor were generated by integration of an expression cassette into the ura3 chromosomal locus of yeast strain MMY23. This cassette consisted of DNA sequence encoding the human CB2 receptor flanked by the yeast GPD promoter to the 5′ end of CB2 and a yeast transcriptional terminator sequence to the 3′ end of CB2. MMY23 expresses a yeast/mammalian chimeric G-protein alpha subunit in which the C-terminal 5 amino acids of Gpa1 are replaced with the C-terminal 5 amino acids of human Gαi3 (as described in Brown et al. (2000), Yeast 16:11-22).
Agonists were prepared as 10 mM stocks in DMSO. […] Agonist solutions in DMSO (1% final assay volume) were transferred into black, clear bottom, microtitre plates from NUNC (96- or 384-well). Cells were suspended at a density of 0.2 OD600/ml in SC media lacking histidine, uracil, tryptophan, adenine and leucine and supplemented with 10 mM 3-aminotriazole, 0.1M sodium phosphate pH 7.0, and […] fluorescein di-β-D-glucopyranoside (FDGlu). […] Fluorescence was plotted against compound concentration and iteratively curve fitted using a four parameter fit to generate a concentration effect value. Efficacy (Emax) was calculated from the equation
Equieffective molar ratio (EMR) values were calculated from the equation
For orientation: Reporter assays use an easily measured gene product as a stand-in for the process of interest.

Bounds are passed on as bounds.

T1 sequence (P34972 whole entry): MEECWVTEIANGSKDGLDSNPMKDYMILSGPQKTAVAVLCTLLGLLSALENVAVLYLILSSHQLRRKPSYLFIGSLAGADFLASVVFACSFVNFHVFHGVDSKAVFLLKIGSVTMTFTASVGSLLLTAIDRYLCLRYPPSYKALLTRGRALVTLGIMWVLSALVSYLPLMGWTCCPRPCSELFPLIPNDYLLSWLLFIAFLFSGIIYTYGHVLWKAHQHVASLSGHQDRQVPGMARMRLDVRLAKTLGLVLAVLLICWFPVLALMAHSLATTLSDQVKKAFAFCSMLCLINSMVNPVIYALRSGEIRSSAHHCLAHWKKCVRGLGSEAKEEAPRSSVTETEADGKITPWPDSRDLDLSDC

For the compound `O=C(NCC1CCOCC1)c1cnc(Nc2ccc(Br)cc2F)cc1C1CC1` [Example 94, 6-(4-Bromo-2-fluoro-phenylamino)-4-cyclopropyl-N-(tetrahydro-pyran-4-ylmethyl)-nicotinamide], the EC50 was in the range of 300 to 1000 nM and the Emax was greater than 50%.

Take `O=C(NCC1CCOCC1)c1cnc(Nc2ccc(C(F)(F)F)c(F)c2)cc1C1CC1` [Example 92, 4-Cyclopropyl-6-(3-fluoro-4-trifluoromethyl-phenylamino)-N-(tetrahydro-pyran-4-ylmethyl)-nicotinamide]: the EC50 was in the range of 300 to 1000 nM and the Emax is greater than 50%.

In the case of `O=C(NCC1CCOCC1)c1cnc(Nc2cc(Cl)ccc2F)cc1C1CC1` [Example 101, 6-(5-Chloro-2-fluoro-phenylamino)-4-cyclopropyl-N-(tetrahydro-pyran-4-ylmethyl)-nicotinamide], the EC50 lay in the range of 300 to 1000 nM and the Emax was greater than 50%.

Take `Cc1c(Nc2cc(C3CC3)c(C(=O)NCC3CCOCC3)cn2)cccc1C(F)(F)F` [Example 107, 4-Cyclopropyl-6-(2-methyl-3-trifluoromethyl-phenylamino)-N-(tetrahydro-pyran-4-ylmethyl)-nicotinamide]: the EC50 was in the range of 300 to 1000 nM and the Emax was greater than 50%.

As to `O=C(NCC1CCOCC1)c1cnc(Nc2ccc(F)c(C(F)(F)F)c2)cc1C1CC1` [Example 93, 4-Cyclopropyl-6-(4-fluoro-3-trifluoromethyl-phenylamino)-N-(tetrahydro-pyran-4-ylmethyl)-nicotinamide], the EC50 lay within 300 to 1000 nM and the Emax was greater than 50%.

In the case of `O=C(NCC1CCOCC1)c1cnc(Nc2cc(C(F)(F)F)ccc2Cl)cc1C1CC1` [Example 103, 6-(2-Chloro-5-trifluoromethyl-phenylamino)-4-cyclopropyl-N-(tetrahydro-pyran-4-ylmethyl)-nicotinamide], the EC50 was 300 to 1000 nM and the Emax is greater than 50%.

Consider `O=C(NCC1CCOCC1)c1cnc(Nc2cccc(C(F)(F)F)c2F)cc1C1CC1` [Example 20, 4-Cyclopropyl-6-(2-fluoro-3-trifluoromethyl-phenylamino)-N-(tetrahydro-pyran-4-ylmethyl)-nicotinamide], for which the EC50 lay within 300 to 1000 nM and the maximal response (Emax) was greater than 50%.

`Cc1cc(Nc2cc(C3CC3)c(C(=O)NCC3CCOCC3)cn2)ccc1Br` [Example 110, 6-(4-Bromo-3-methyl-phenylamino)-4-cyclopropyl-N-(tetrahydro-pyran-4-ylmethyl)-nicotinamide]: the EC50 was 300 to 1000 nM and the Emax is greater than 50%.

For the compound `O=C(NCC1CCOCC1)c1ccc(Nc2cccc(OC(F)(F)F)c2)nc1C1CC1` [Example 127, 2-Cyclopropyl-N-(tetrahydro-pyran-4-ylmethyl)-6-(3-trifluoromethoxy-phenylamino)-nicotinamide], the EC50 fell in the range of 300 to 1000 nM and the Emax was greater than 50%.

Consider `O=C(NCC1CCOCC1)c1ccc(Nc2cccc(Br)c2)nc1C1CC1` [Example 126, 6-(3-Bromo-phenylamino)-2-cyclopropyl-N-(tetrahydro-pyran-4-ylmethyl)-nicotinamide], for which the EC50 was 300 to 1000 nM and the Emax is greater than 50%.

Turning to `O=C(NCC1CCOCC1)c1cnc(Nc2ccc(Cl)cc2F)cc1C1CC1` [Example 98, 6-(4-Chloro-2-fluoro-phenylamino)-4-cyclopropyl-N-(tetrahydro-pyran-4-ylmethyl)-nicotinamide], the EC50 was 300 to 1000 nM and the Emax is greater than 50%.

Regarding `N#Cc1ccc(Nc2cc(C3CC3)c(C(=O)NCC3CCOCC3)cn2)c(F)c1` [Example 121, 6-(4-Cyano-2-fluoro-phenylamino)-4-cyclopropyl-N-(tetrahydro-pyran-4-ylmethyl)-nicotinamide], the EC50 is 300 to 1000 nM and the Emax is greater than 50%.

Consider `O=C(NCC1CCOCC1)c1cnc(Nc2cccc(Cl)c2Cl)cc1C1CCCC1` [Example 25, 4-Cyclopentyl-6-(2,3-dichloro-phenylamino)-N-(tetrahydro-pyran-4-ylmethyl)-nicotinamide], for which the EC50 fell in the range of 300 to 1000 nM and the Emax is greater than 50%.

As for `COc1cccc(Nc2cc(C3CC3)c(C(=O)NCC3CCCC3)cn2)c1` [Example 118, N-Cyclopentylmethyl-4-cyclopropyl-6-(3-methoxy-phenylamino)-nicotinamide], the half-maximal effective concentration (EC50) fell in the range of 300 to 1000 nM and the Emax was greater than 50%.

Consider `Cc1cc(C#N)ccc1Nc1cc(C2CC2)c(C(=O)NCC2CCOCC2)cn1` [Example 106, 6-(4-Cyano-2-methyl-phenylamino)-4-cyclopropyl-N-(tetrahydro-pyran-4-ylmethyl)-nicotinamide], for which the concentration giving a half-maximal response (EC50) fell in the range of 300 to 1000 nM and the Emax is greater than 50%.

`Cc1ccc(Cl)cc1Nc1cc(C2CC2)c(C(=O)NCC2CCOCC2)cn1` [Example 105, 6-(5-Chloro-2-methyl-phenylamino)-4-cyclopropyl-N-(tetrahydro-pyran-4-ylmethyl)-nicotinamide]: the EC50 is 300 to 1000 nM and the Emax was greater than 50%.

Take `Cc1cccc(Nc2cc(C3CCCC3)c(C(=O)NCC3CCOCC3)cn2)c1` [Example 17, Methanesulphonic acid,compound with 4-cyclopentyl-N-(tetrahydro-pyran-4-ylmethyl)-6-m-tolylamino-nicotinamide]: the 50% effective concentration (EC50) lay within 300 to 1000 nM and the Emax was greater than 50%.

On to `O=C(NCC1CCOCC1)c1cnc(Nc2cccc(F)c2)cc1C1CCCC1` [Example 15, 4-Cyclopentyl-6-(3-fluoro-phenylamino)-N-(tetrahydro-pyran-4-ylmethyl)-nicotinamide], for which the 50% effective concentration (EC50) lay within 300 to 1000 nM and the Emax is greater than 50%.

Regarding `O=C(NCC1CCOCC1)c1ccc(Nc2cccc(Cl)c2)nc1C1CC1` [Example 124, 6-(3-Chloro-phenylamino)-2-cyclopropyl-N-(tetrahydro-pyran-4-ylmethyl)-nicotinamide], the EC50 was in the range of 300 to 1000 nM and the maximum response (Emax) was greater than 50%.

`O=C(NCC1CCCC1)c1cnc(Nc2ccc(F)cc2F)cc1C1CC1` [Example 99, N-Cyclopentylmethyl-4-cyclopropyl-6-(2,4-difluoro-phenylamino)-nicotinamide]: the EC50 fell in the range of 300 to 1000 nM and the Emax was greater than 50%.

`Cc1ccc(C(F)(F)F)cc1Nc1cc(C2CC2)c(C(=O)NCC2CCOCC2)cn1` [Example 114, 4-Cyclopropyl-6-(2-methyl-5-trifluoromethyl-phenylamino)-N-(tetrahydro-pyran-4-ylmethyl)-nicotinamide]: the EC50 lay in the range of 300 to 1000 nM and the Emax is greater than 50%.

Regarding `O=C(NCC1CCOCC1)c1ccc(Nc2cccc(C(F)(F)F)c2)nc1C1CC1` [Example 125, 2-Cyclopropyl-N-(tetrahydro-pyran-4-ylmethyl)-6-(3-trifluoromethyl-phenylamino)-nicotinamide], the EC50 lay in the range of 300 to 1000 nM and the Emax was greater than 50%.

For `O=C(NCC1CCOCC1)c1cnc(Nc2cc(F)ccc2Cl)cc1C1CC1` [Example 108, 6-(2-Chloro-5-fluoro-phenylamino)-4-cyclopropyl-N-(tetrahydro-pyran-4-ylmethyl)-nicotinamide], the EC50 lay within 300 to 1000 nM and the Emax was greater than 50%.

For `O=C(NCC1CCOCC1)c1cnc(Nc2ccc(F)cc2Cl)cc1C1CCCC1` [Example 22, 6-(2-Chloro-4-fluoro-phenylamino)-4-cyclopentyl-N-(tetrahydro-pyran-4-ylmethyl)-nicotinamide], the EC50 was 300 to 1000 nM and the Emax was greater than 50%.

For `Cc1cc(Cl)ccc1Nc1cc(C2CC2)c(C(=O)NCC2CCOCC2)cn1` [Example 95, 6-(4-Chloro-2-methyl-phenylamino)-4-cyclopropyl-N-(tetrahydro-pyran-4-ylmethyl)-nicotinamide], the EC50 is 300 to 1000 nM and the Emax is greater than 50%.

Turning to `Cc1ccc(Nc2cc(C3CC3)c(C(=O)NCC3CCOCC3)cn2)cc1Cl` [Example 112, 6-(3-Chloro-4-methyl-phenylamino)-4-cyclopropyl-N-(tetrahydro-pyran-4-ylmethyl)-nicotinamide], the EC50 lay within 300 to 1000 nM and the Emax was greater than 50%.

`O=C(NCC1CCOCC1)c1cnc(Nc2cc(C(F)(F)F)ccc2Br)cc1C1CC1` [Example 104, 6-(2-Bromo-5-trifluoromethyl-phenylamino)-4-cyclopropyl-N-(tetrahydro-pyran-4-ylmethyl)-nicotinamide]: the EC50 was in the range of 300 to 1000 nM and the Emax is greater than 50%.

Turning to `O=C(NCC1CCOCC1)c1cnc(Nc2ccc(F)c(Cl)c2)cc1C1CC1` [Example 21, 6-(3-Chloro-4-fluoro-phenylamino)-4-cyclopropyl-N-(tetrahydro-pyran-4-ylmethyl)-nicotinamide], the EC50 lay in the range of 300 to 1000 nM and the Emax is greater than 50%.

Turning to `COc1cccc(Nc2cc(C3CCCC3)c(C(=O)NCC3CCOCC3)cn2)c1` [Example 26, 4-Cyclopentyl-6-(3-methoxy-phenylamino)-N-(tetrahydro-pyran-4-ylmethyl)-nicotinamide], the EC50 fell in the range of 300 to 1000 nM and the Emax is greater than 50%.

`O=C(NCC1CCOCC1)c1cnc(Nc2ccc(Cl)cc2F)cc1C1CCCC1` [Example 24, 6-(4-Chloro-2-fluoro-phenylamino)-4-cyclopentyl-N-(tetrahydro-pyran-4-ylmethyl)-nicotinamide]: the EC50 is 300 to 1000 nM and the maximal response (Emax) is greater than 50%.
